The source of these data is PMC11831190 (MedComm, 2025).

A short description of this data set: Pharmacokinetic evaluation of Oraxol in patients with MBC (weeks 1 and 4). The format is in vivo, human. The conditions noted are these: for AUC(0-t) / Cmax / Tmax: human, in vivo, oral; for AUC(0-t): read-out: AUC (0-52) Mean. Here is the method:
Similarly, patients were readmitted to the clinic the preceding night dosing on week 4, day 1, and remained at the clinic until pharmacokinetic sampling was completed on Day 3 of that week.
Analytical determination of pharmacokinetic parameters was conducted in patients who provided at least one post‐dose blood sample. The study weeks were counted consecutively starting from week 1 for pharmacokinetic sampling. However, for week 4 pharmacokinetic sampling, a delay was permitted at the investigator's discretion to allow the relevant time to recuperate from any intolerable toxicity, if present. In the instance of treatment postponement, pharmacokinetic samples for week 4 were collected immediately after treatment resumed, regardless of whether a dose reduction were applied.
The pharmacokinetic parameters were synthesized utilizing descriptive data analysis, including mean, standard deviation, median, minimum, and maximum values. What is more, summaries of pharmacokinetic parameters included the geometric average and the coefficient of variation. Individual concentration data and corresponding area under the AUC timepoint data were tabulated in both nominal and actual sampling times for all patients. The concentration‐timepoint data (in actual times) were presented graphically for each subject.
The pharmacokinetic parameters were analyzed using logarithmic transformation, followed by statistical evaluation through analysis of variance, considering subject and treatment effects. […] This analysis allowed for the assessment of the pharmacokinetic profile of Oraxol over the course of treatment.

The structures appear in SMILES notation. Where two headings read alike, the source gives them in different places.

In the case of `COc1cc2c(cc1OC)CN(CCc1ccc(-n3nnc(-c4cc(OC)c(OC)cc4NC(=O)c4cc(=O)c5ccccc5o4)n3)cc1)CC2.CS(=O)(=O)O.O` [HM30181A, HM30181A methanesulfonate monohydrate], the Tmax (0-24) Median (Study day 1) amounted to 5 h and the Tmax (0-24) Median (Study day 22) is 4.5 h.
In general, Cmax refers to the highest concentration seen after dosing. Broadly, the Tmax is the time from dosing to the highest level. As for `CC(=O)O[C@H]1C(=O)[C@@]2(C)[C@H]([C@H](OC(=O)c3ccccc3)[C@]3(O)C[C@H](OC(=O)[C@H](O)[C@@H](NC(=O)c4ccccc4)c4ccccc4)C(C)=C1C3(C)C)[C@]1(OC(C)=O)CO[C@@H]1C[C@@H]2O` [Paclitaxel], the Tmax (0-24) Median runs as follows: (Study day 1) 1 h; (Study day 22) 1 h. Moreover, the AUC(0-t) came out at 3.54 µg·h/mL (Study day 1) and 3.52 µg·h/mL (Study day 22). Moreover, the Cmax is, setting by setting: (Study day 1, read-out: Cmax (0-24) Mean) 0.288 µg/mL; (Study day 1, read-out: Cmax (24-48) Mean) 0.338 µg/mL; (Study day 1, read-out: Cmax (48-52) Mean) 0.325 µg/mL; (Study day 1, read-out: Cmax Mean) 0.404 µg/mL; (Study day 22, read-out: Cmax (0-24) Mean) 0.329 µg/mL; (Study day 22, read-out: Cmax (24-48) Mean) 0.289 µg/mL. For the same molecule, the Cmax runs as follows: (Study day 22, read-out: Cmax (48-52) Mean) 0.313 µg/mL; (Study day 22, read-out: Cmax Mean) 0.399 µg/mL. Also, the time to peak (Tmax) is, setting by setting: (Study day 1, read-out: Tmax (24-48) Median) 25.5 h; (Study day 1, read-out: Tmax (48-52) Median) 49.3 h; (Study day 22, read-out: Tmax (24-48) Median) 25 h; (Study day 22, read-out: Tmax (48-52) Median) 49 h.
